ChEMBL document CHEMBL4419174, “Small molecule inhibitors of apobec3g and apobec3b” (2015)
pIC50: −log10 of the molar value. The source made the active and inactive calls. No cut-off for these calls is given here.

Legend:
[1] = biological target: T1, DNA dC->dU-editing enzyme APOBEC-3A (Homo sapiens, UniProt P31941); test: (§1) Inhibition of recombinant APOBEC3A (unknown origin) expressed in HEK293 cells assessed as reduction in cytosine deaminase activity using 5'-6-FAM and 3'-TAMRA quench molecule tagged cytosine-containing single-stranded DNA substrate incubated for 2 hrs by fluorescence-based assay; format: cell-based
[2] = biological target: T2, DNA dC->dU-editing enzyme APOBEC-3G (Homo sapiens, UniProt Q9HC16); test: (§2) Inhibition of recombinant APOBEC3G (unknown origin) expressed in HEK293 cells assessed as reduction in cytosine deaminase activity using 5'-6-FAM and 3'-TAMRA quench molecule tagged cytosine-containing single-stranded DNA substrate incubated for 2 hrs by fluorescence-based assay; format: cell-based
[3] = Inhibition of recombinant APOBEC3G 2K3A mutant (unknown origin) expressed in HEK293 cells assessed as reduction in cytosine deaminase activity using 5'-6-FAM and 3'-TAMRA quench molecule tagged cytosine-containing single-stranded DNA substrate incubated for 2 hrs by fluorescence-based assay; format: cell-based, Homo sapiens
[4] = biological target: DNA dC->dU-editing enzyme APOBEC-3G (Homo sapiens, UniProt Q9HC16, C321A); test: Inhibition of recombinant APOBEC3G C321A mutant (unknown origin) expressed in HEK293 cells assessed as reduction in cytosine deaminase activity using 5'-6-FAM and 3'-TAMRA quench molecule tagged cytosine-containing single-stranded DNA substrate incubated for 2 hrs by fluorescence-based assay; format: cell-based
[5] = biological target: DNA dC->dU-editing enzyme APOBEC-3B (Homo sapiens, UniProt Q9UH17); test: Inhibition of recombinant APOBEC3B (unknown origin) expressed in HEK293 cells assessed as reduction in cytosine deaminase activity using 5'-6-FAM and 3'-TAMRA quench molecule tagged cytosine-containing single-stranded DNA substrate incubated for 2 hrs by fluorescence-based assay; format: cell-based
[6] = Toxicity in HEK293T cells assessed as cell viability at 50 uM incubated for 5 days relative to control; format: cell-based, HEK-293T; details: human, read-out: Activity
[7] = Toxicity in human HeLa cells assessed as cell viability at 50 uM incubated for 5 days relative to control; format: cell-based; details: read-out: Activity
[8] = biological target: T2, DNA dC->dU-editing enzyme APOBEC-3G; test: as §2, with “activity at 200 uM” for “activity”, “hrs and measured on day 0” for “hrs”; format: cell-based
[9] = biological target: T2, DNA dC->dU-editing enzyme APOBEC-3G; test: as §2, with “hrs and measured on at days 3, 21, 38, and 72” for “hrs”; format: cell-based
[10] = Stability in DMSO assessed as drug degradation incubated for 21 days by HPLC analysis; format: physicochemical; details: 504 h
[11] = Stability in saturated N2 atmosphere assessed as drug degradation by NMR and LC-MS/MS analysis; format: physicochemical
[12] = Stability in DMSO assessed as light dependent drug degradation by HPLC analysis; format: physicochemical
[13] = Stability in DMSO assessed as drug degradation at -20 to 37 degC by HPLC analysis; format: physicochemical
[14] = Drug metabolism in DMSO at 10 mM shaken gently at 25 degC open to atmosphere condition assessed as 2-oxo-1,2-dihydroquinoline-4-carboxylic acid formation after 38 days by HPLC analysis
[15] = Drug metabolism in DMSO at 10 mM shaken gently at 25 degC exposed to visible light (300 W) in oxygen-saturated atmosphere assessed as 2-oxo-1,2-dihydroquinoline-4-carboxylic acid formation after 38 days by HPLC analysis
[16] = Stability in DMSO at 10 mM shaken gently at 25 degC exposed toN2 atmosphere assessed as compound degradation measured over 9 hrs by HPLC analysis; format: physicochemical; details: 10000 µM
[17] = biological target: T1, DNA dC->dU-editing enzyme APOBEC-3A; details: HEK293, 200 uM
Description: Inhibition of recombinant APOBEC3A (unknown origin) expressed in HEK293 cells assessed as reduction in cytosine deaminase activity at 200 uM using 5'-6-FAM and 3'-TAMRA quench molecule tagged cytosine-containing single-stranded DNA substrate incubated for 2 hrs and measured on day 0 by fluorescence-based assay

[18] = biological target: T1, DNA dC->dU-editing enzyme APOBEC-3A; test: as §1, with “activity at 200 uM” for “activity”, “assay relative to control” for “assay”; format: cell-based

T2 sequence (Q9HC16 whole entry): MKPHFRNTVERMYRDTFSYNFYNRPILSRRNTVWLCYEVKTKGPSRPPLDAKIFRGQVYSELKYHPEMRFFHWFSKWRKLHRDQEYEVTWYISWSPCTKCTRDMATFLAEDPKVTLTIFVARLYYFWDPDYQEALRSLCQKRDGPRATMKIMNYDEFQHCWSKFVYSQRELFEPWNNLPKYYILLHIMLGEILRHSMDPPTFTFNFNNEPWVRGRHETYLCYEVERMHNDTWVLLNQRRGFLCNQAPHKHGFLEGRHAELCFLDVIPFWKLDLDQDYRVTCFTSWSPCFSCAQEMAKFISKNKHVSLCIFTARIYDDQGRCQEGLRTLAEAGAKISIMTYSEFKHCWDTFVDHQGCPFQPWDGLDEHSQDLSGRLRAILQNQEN
Sequence of DNA dC->dU-editing enzyme APOBEC-3B (Q9UH17 whole entry): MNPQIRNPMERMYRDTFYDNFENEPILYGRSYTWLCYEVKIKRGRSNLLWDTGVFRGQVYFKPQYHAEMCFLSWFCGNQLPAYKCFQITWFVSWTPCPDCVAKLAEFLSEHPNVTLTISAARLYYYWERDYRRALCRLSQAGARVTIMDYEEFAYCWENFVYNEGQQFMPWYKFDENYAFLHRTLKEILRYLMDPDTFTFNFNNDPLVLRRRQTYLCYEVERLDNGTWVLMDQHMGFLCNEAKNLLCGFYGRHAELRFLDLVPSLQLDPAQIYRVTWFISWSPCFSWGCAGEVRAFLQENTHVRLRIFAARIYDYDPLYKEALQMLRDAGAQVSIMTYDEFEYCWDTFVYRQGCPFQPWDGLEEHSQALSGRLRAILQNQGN
T1 sequence (P31941 whole entry): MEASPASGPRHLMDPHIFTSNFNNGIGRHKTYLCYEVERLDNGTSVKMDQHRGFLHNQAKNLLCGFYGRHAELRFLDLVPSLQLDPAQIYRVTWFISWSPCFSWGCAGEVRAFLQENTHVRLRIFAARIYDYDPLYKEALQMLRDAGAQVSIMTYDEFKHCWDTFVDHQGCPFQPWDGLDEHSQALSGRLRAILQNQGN
Sequence of DNA dC->dU-editing enzyme APOBEC-3G (Homo sapiens, UniProt Q9HC16, C321A) (Q9HC16 whole entry C321A): as the sequence (Q9HC16 whole entry) above, with C321A counted along it

| pIC50 [1] | pIC50 [2] | pIC50 [3] | pIC50 [4] | pIC50 [5] | Structure (SMILES) | other results |
| --- | --- | --- | --- | --- | --- | --- |
| < 4.00 | 4.92 | 4.13 | 4.64 | 4.51 | O=C(Nc1nnc(-c2ccncc2)s1)c1cc(=O)[nH]c2ccc([N+](=O)[O-])cc12 | – |
| < 4.00 | 4.66 | < 4.00 | < 4.00 | < 4.00 | O=C(Nc1nnc(-c2ccncc2)s1)c1cc(Cl)nc2ccccc12 | – |
| < 4.00 | 4.77 | 4.62 | 4.70 | 4.43 | COc1ccc2[nH]c(=O)cc(C(=O)Nc3nnc(-c4ccncc4)s3)c2c1 | – |
| 4.12 | 4.49 | – | 4.28 | 4.19 | O=C(Nc1nnc(-c2ccncc2)s1)c1cc(Br)nc2ccccc12 | – |
| < 4.00 | 4.74 | 4.26 | 4.52 | 4.51 | Nc1ccc2[nH]c(=O)cc(C(=O)Nc3nnc(-c4ccncc4)s3)c2c1 | – |
| – | – | – | – | – | Cc1ccc(-c2cc(C(=O)Nc3nnc(-c4ccncc4)s3)c3ccccc3n2)o1 | viability at 120 h, 50 µM [6]: > 85%; viability at 120 h, 50 µM [7]: > 85%; inhibition [8]: inactive; inhibition [9]: inactive; Stability [10]: Unstable; Stability [11]: Stable; Stability [12]: Unstable; Stability [13]: Unstable; Drug metabolism [14]: Metabolite detected; Drug metabolism [15]: Metabolite detected; Stability [16]: Stable; inhibition [17]: inactive |
| < 4.00 | 4.22 | < 4.00 | – | – | O=C(Nc1nnc(-c2ccncc2)s1)c1ccnc(O)c1 | – |
| 4.06 | 4.68 | – | 4.51 | 4.52 | O=C(Nc1nnc(-c2ccncc2)s1)c1ccc(O)nc1 | – |
| < 4.00 | 4.05 | < 4.00 | < 4.00 | < 4.00 | O=C(Nc1nnc(-c2ccncc2)s1)c1cc(=O)[nH]c2ccccc12 | inhibition [18]: 50% |
| < 4.00 | 4.82 | < 4.00 | < 4.00 | < 4.00 | N#Cc1ncnn1C(=O)c1cc(=O)[nH]c2ccccc12 | – |
| 3.95 | – | – | – | – | O=C(O)c1cccc2c1C(=O)N(c1ccccc1)C2 | – |
